These results are taken from patent US12679822B2, “Alkenyl pyrimidine compound, preparation method therefor, and application thereof” (Hongyun Biotech Co., Ltd., priority 2020, dated 2026).

Holding throughout (type): cell-based
The target in experiment [1] is BaF3 cell lines stably transfected with kinase EGFR Del (Homo sapiens, UniProt P00533, cells depend on it, form not given). Put plainly: Growth inhibition of BaF3 cell line stably transfected with kinase EGFR Del (MTS). Particulars: 48 h, read-out: growth inhibitory activity IC50, Del. Summed up:
(§1)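 Growth inhibition is measured by MTS conversion (OD 490 nm) following 48 h treatment at concentrations up to 10 μM, diluted by ⅓ over 8 points. Each condition runs in duplicate with 0.1% DMSO negative and cell-free blank controls.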

The target in experiment [2] is BaF3 cell lines stably transfected with kinase EGFR L858R/T790M/C797S (Homo sapiens, UniProt P00533, T790M/C797S/L858R, cells depend on it). Put plainly: Growth inhibition of BaF3 cell line stably transfected with kinase EGFR L858R/T790M/C797S (MTS). Particulars: 48 h, read-out: growth inhibitory activity IC50, L858R/T790M/C797S. The method in brief: as §1
For experiment [3], the target named is BaF3 cell lines stably transfected with kinase EGFR Del/T790M (Homo sapiens, UniProt P00533, T790M, cells depend on it, form not given). The experiment is described as follows: Growth inhibition of BaF3 cell line stably transfected with kinase EGFR Del/T790M (MTS). Particulars: 48 h, read-out: growth inhibitory activity IC50, Del/T790M. The method in brief:
as §1

The target in experiment [4] is BaF3 cell lines stably transfected with kinase EGFR L858R/T790M (Homo sapiens, UniProt P00533, T790M/L858R, cells depend on it). The experiment is described as follows: Growth inhibition of BaF3 cell line stably transfected with kinase EGFR L858R/T790M (MTS). Particulars: 48 h, read-out: growth inhibitory activity IC50, L858R/T790M. Summed up: as §1
The target of experiment [5] is BaF3 cell lines stably transfected with kinase EGFR L858R (Homo sapiens, UniProt P00533, L858R, cells depend on it). Put plainly: Growth inhibition of BaF3 cell line stably transfected with kinase EGFR L858R (MTS). Particulars: 48 h, read-out: growth inhibitory activity IC50, L858R. The method in brief:
as §1

The target of experiment [6] is BaF3 cell lines stably transfected with kinase EGFR Del/T790M/C797S (Homo sapiens, UniProt P00533, T790M/C797S, cells depend on it, form not given). Put plainly: Growth inhibition of BaF3 cell line stably transfected with kinase EGFR Del/T790M/C797S (MTS). Particulars: 48 h, read-out: growth inhibitory activity IC50, Del/T790M/C797S. The method in brief: as §1

Structures are written as SMILES. Where only a bound is given, the exact number is not on record here.

Sequence of BaF3 cell lines stably transfected with kinase EGFR Del (P00533 with tags, fused parts or gaps DEL746-750): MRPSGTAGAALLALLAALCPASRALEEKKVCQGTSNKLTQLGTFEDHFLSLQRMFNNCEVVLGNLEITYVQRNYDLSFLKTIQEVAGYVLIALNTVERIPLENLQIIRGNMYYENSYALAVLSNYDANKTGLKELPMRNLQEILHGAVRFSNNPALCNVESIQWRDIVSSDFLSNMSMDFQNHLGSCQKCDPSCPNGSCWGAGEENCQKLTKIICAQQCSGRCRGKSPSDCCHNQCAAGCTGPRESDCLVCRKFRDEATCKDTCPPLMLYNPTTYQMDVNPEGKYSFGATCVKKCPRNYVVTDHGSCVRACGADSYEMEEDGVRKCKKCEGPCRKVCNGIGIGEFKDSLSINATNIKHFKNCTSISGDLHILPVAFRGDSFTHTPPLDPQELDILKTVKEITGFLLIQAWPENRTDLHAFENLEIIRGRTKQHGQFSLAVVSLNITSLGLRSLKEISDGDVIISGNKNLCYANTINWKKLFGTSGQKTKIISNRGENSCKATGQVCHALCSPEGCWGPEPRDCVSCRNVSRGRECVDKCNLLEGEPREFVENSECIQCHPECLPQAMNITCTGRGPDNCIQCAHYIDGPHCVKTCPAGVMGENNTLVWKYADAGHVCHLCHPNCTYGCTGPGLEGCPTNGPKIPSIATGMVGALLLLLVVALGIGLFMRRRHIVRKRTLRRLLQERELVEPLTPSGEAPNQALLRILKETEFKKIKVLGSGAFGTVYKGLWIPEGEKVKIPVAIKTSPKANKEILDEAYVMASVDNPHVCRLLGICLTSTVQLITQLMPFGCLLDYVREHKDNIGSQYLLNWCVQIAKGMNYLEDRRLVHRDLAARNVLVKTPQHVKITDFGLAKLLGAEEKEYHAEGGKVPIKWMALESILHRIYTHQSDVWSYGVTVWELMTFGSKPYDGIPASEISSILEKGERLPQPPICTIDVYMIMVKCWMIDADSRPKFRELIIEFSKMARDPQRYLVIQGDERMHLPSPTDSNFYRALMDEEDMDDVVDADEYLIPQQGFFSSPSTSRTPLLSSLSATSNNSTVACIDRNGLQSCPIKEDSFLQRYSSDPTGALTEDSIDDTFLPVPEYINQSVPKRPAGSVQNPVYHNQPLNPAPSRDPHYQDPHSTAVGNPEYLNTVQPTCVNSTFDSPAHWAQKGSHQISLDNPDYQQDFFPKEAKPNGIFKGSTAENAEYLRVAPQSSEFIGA
Sequence of BaF3 cell lines stably transfected with kinase EGFR L858R/T790M/C797S (P00533 whole entry T790M/C797S/L858R): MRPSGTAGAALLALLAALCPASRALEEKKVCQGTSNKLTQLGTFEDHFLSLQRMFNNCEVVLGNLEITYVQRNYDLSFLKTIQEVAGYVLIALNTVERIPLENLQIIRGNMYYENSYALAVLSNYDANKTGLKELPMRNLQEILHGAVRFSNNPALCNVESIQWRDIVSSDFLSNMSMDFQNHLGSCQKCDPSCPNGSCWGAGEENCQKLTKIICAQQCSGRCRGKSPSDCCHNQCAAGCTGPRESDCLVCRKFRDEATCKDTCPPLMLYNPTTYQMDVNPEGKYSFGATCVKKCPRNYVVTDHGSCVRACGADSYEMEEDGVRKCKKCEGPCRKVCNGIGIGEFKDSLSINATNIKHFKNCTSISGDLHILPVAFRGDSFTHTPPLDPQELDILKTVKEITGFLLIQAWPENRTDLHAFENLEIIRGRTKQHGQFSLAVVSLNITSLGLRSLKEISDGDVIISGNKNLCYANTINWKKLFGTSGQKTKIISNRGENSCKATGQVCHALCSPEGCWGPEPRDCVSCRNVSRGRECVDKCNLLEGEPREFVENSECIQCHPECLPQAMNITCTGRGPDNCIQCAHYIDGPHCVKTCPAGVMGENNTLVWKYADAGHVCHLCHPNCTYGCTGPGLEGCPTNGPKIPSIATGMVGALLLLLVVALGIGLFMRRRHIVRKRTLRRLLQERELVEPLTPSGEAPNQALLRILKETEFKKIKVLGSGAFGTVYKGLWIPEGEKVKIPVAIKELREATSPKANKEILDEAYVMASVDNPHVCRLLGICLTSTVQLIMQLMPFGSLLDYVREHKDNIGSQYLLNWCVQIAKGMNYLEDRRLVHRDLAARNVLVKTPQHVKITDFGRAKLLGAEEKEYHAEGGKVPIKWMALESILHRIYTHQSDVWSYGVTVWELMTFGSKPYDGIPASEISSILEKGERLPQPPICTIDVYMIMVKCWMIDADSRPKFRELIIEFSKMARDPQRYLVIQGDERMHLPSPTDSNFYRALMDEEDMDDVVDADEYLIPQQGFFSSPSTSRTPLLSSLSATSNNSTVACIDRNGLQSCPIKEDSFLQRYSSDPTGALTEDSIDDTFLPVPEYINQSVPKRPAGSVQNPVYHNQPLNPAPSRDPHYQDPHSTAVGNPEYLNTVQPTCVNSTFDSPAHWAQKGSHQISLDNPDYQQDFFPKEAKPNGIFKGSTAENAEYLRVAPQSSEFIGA
Sequence of BaF3 cell lines stably transfected with kinase EGFR Del/T790M/C797S (P00533 with tags, fused parts or gaps DEL746-750/T790M/C797S, form open): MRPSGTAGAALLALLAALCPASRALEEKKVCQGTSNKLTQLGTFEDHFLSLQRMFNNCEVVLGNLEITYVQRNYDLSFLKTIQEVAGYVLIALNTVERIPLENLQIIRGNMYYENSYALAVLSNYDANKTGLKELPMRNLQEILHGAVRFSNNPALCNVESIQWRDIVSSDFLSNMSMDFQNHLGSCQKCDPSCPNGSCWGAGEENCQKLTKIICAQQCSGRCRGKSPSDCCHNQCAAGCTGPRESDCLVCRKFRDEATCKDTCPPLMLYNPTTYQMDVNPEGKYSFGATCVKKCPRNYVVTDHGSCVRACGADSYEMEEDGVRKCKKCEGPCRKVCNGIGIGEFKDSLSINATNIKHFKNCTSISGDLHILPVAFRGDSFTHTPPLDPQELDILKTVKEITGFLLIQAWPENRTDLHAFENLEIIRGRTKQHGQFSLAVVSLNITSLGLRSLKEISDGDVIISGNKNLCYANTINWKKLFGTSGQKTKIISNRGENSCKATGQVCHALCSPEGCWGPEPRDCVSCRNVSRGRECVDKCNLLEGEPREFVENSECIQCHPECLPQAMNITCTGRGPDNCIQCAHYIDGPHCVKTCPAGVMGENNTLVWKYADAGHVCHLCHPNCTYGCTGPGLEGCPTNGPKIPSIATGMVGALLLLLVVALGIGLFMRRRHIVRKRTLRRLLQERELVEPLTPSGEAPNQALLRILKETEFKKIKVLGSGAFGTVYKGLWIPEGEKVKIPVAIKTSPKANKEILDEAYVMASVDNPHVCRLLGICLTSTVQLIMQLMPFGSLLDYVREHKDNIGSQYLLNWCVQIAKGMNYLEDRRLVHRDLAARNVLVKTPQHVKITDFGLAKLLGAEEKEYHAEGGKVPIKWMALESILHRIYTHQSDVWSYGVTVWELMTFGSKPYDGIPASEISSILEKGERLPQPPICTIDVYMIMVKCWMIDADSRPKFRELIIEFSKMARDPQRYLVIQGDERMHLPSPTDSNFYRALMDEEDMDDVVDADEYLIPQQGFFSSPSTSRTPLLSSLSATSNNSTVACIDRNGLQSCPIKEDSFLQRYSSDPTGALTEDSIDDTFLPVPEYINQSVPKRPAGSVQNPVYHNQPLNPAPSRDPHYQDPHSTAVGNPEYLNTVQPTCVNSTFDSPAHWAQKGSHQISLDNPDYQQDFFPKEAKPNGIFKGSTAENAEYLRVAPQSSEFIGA
Sequence of BaF3 cell lines stably transfected with kinase EGFR Del/T790M (P00533 with tags, fused parts or gaps DEL746-750/T790M, form open): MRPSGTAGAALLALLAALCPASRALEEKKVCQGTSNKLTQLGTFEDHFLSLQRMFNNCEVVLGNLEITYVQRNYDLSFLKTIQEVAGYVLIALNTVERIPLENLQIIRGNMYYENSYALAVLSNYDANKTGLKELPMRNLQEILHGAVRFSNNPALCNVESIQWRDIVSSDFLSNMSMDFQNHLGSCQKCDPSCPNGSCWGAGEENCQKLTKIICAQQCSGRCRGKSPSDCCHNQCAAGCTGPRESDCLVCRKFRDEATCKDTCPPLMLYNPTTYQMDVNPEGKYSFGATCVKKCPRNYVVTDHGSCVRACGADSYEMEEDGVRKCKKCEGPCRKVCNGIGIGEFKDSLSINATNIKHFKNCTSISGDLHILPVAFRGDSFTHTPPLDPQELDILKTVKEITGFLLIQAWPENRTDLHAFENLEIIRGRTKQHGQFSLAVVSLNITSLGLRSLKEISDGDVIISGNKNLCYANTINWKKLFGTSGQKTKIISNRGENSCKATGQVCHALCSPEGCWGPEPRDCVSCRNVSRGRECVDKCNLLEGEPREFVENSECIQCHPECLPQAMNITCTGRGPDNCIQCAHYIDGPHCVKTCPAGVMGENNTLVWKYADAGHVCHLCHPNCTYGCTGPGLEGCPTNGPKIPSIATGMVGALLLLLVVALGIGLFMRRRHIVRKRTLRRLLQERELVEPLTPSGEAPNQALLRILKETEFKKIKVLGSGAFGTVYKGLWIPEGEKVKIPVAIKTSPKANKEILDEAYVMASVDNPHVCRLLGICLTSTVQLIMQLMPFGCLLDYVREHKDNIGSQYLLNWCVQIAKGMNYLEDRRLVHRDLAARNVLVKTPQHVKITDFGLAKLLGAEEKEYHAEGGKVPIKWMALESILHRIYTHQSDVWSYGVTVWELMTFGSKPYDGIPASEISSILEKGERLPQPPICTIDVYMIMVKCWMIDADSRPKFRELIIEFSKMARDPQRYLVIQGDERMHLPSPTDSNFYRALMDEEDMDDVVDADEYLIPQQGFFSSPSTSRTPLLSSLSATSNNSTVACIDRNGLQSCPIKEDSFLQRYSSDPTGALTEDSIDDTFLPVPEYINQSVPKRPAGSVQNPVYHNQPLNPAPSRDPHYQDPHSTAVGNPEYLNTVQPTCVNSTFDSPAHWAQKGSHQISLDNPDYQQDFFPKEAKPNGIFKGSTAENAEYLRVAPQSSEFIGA

With `C=Cc1cnc(Nc2ccc(N3CCC(N4CCN(C)CC4)CC3)c(CC)c2)nc1Nc1ccc2nccnc2c1S(=O)(=O)NC` [IV-9], the GI50 was 50 to 500 nM in experiment [1]; 50 to 500 nM in experiment [2]; 50 to 500 nM in experiment [3]; at most 50 nM in experiment [4]; 50 to 500 nM in experiment [5]; 50 to 500 nM in experiment [6].

In the case of `C=Cc1cnc(Nc2ccc(N3CCC(N4CCN(C)CC4)CC3)c(F)c2F)nc1Nc1ccc2nccnc2c1S(=O)(=O)NC` [IV-10], the GI50 in experiment [1] is 50 to 500 nM; in experiment [2], 50 to 500 nM; in experiment [3], 50 to 500 nM; in experiment [4] it was at most 50 nM; in experiment [5], 50 to 500 nM; in experiment [6], 50 to 500 nM.

Regarding `C=Cc1cnc(Nc2cc(F)c(N3CCC(N4CCN(C)CC4)CC3)c(F)c2)nc1Nc1ccc2nccnc2c1S(=O)(=O)NC` [IV-11], the GI50 is 50 to 500 nM in experiment [1]; 50 to 500 nM in experiment [2]; 50 to 500 nM in experiment [3]; at most 50 nM in experiment [4]; 50 to 500 nM in experiment [5]; 50 to 500 nM in experiment [6].

Consider `C=Cc1cnc(Nc2cc(CC)c(N3CCC(N(C)C)CC3)cc2OC)nc1Nc1ccc2nccnc2c1S(=O)(=O)NC` [IV-13], for which the GI50 in experiment [1], in experiment [2], in experiment [3], in experiment [4], in experiment [5] and in experiment [6] was 50 to 500 nM in each case.

Consider `C=Cc1cnc(Nc2cc(CC)c(N3CCC(N(C)C)C3)cc2OC)nc1Nc1ccc2nccnc2c1S(=O)(=O)NC` (stereo not drawn) [IV-14], for which the GI50 in experiment [1], in experiment [2], in experiment [3], in experiment [4], in experiment [5] and in experiment [6] was 50 to 500 nM in each case.

Consider `C=Cc1cnc(Nc2cc(CC)c(N3CCN(C)CC3)cc2OC)nc1Nc1ccc2nccnc2c1S(=O)(=O)NC` [IV-15], for which the GI50 in experiment [1], in experiment [2], in experiment [3], in experiment [4], in experiment [5] and in experiment [6] was 50 to 500 nM throughout.

Regarding `C=Cc1cnc(Nc2cc(C)c(N3CCC(N4CCN(C)CC4)CC3)cc2OC)nc1Nc1ccc2nccnc2c1S(=O)(=O)NC(C)C` [IV-17], the GI50 in experiment [1] lay within 500 to 2500 nM; in experiment [2], 500 to 2500 nM; in experiment [3] it was 50 to 500 nM; in experiment [4] it was 50 to 500 nM; in experiment [5], 50 to 500 nM; in experiment [6], 500 to 2500 nM.

On to `C=Cc1cnc(Nc2cc(CC)c(N3CCC(N4CCN(C)CC4)CC3)cc2OC)nc1Nc1ccc2nccnc2c1S(=O)(=O)NC(C)C` [IV-18], for which the GI50 in experiment [1] fell in the range of 50 to 500 nM; in experiment [2], 500 to 2500 nM; in experiment [3] it was 50 to 500 nM; in experiment [4], 50 to 500 nM; in experiment [5] it was 50 to 500 nM; in experiment [6] it was 500 to 2500 nM.
